These molecules were tested against h-Cereblon_DDB1 (hCereblon(M1-L442)_hDDB1(M1-H1140)) (Homo sapiens (Human), UniProt Q96SW2) (assay: Fluorescence direct binding (tryptophan fluorescence titration)). Settings: 20° C., excitation 280 nm, emission 340 nm, assay buffer 50 mM Hepes 7.4 200 mM NaCl, protein 5.0 E−8 M; read-out: Fluorescence h-Cereblon_DDB1 Mean Kd_EQ.
Method: Fluorescence Direct Binding Protocol
Determination of the affinities of compounds to protein containing one or more tryptophan is measurable by monitoring the fluorescence emission in direct mode. The measurements depending on the protein available amounts are performed either manually in a cuvette on ISS-PC1 photon counting spectrofluorometer or automatically in well plates on a fluorescence plate reader device. Fluorescence titrations are performed at 20° C. in the chosen binding assay buffer by using a defined constant protein concentration against ligand concentration variations. Small aliquots of known ligand concentration solubilized in DMSO were added and the fluorescence, excited at 280 nm, was recorded at 340 nm. The fluorescence intensity was corrected for protein dilution and for the filter effect (Birdsall, B., et al. (1983). Anal. Biochem. 132, 353-361). The corrected fluorescence intensity was plotted against the ligand concentration and fitted using a four-parameter sigmoidal function, from which the equilibrium dissociation constant Kd was computed using the law of mass action assuming a 1:1 protein-ligand complex (Eftink, Methods Enzymol. 1997; 278:221-57).
The Fluorescence Direct Binding Protocol Process includes:
• 1) Optimization of measurement parameters to minimize protein consumption and to minimize the dilution effect and the DMSO content • 2) Titration measurements of the protein against ligand by at least 12 titration steps to obtain a good s-curve fit • 3) Repeat the same titration measurements with the ligand alone to enable correction • 4) Check the stability of the protein once by titration against DMSO alone • 5) Determination of the molar extinction coefficients of the ligand at 280 and 340 nm with help of an UV-spectrophotometer • 6) Use Excel template for the correction of the measured raw data • 7) Use GraphPad Prism software for the quadratic binding fit and the KD evaluation.

Sequence of h-Cereblon_DDB1 (hCereblon(M1-L442)_hDDB1(M1-H1140)) (Q96SW2 whole entry): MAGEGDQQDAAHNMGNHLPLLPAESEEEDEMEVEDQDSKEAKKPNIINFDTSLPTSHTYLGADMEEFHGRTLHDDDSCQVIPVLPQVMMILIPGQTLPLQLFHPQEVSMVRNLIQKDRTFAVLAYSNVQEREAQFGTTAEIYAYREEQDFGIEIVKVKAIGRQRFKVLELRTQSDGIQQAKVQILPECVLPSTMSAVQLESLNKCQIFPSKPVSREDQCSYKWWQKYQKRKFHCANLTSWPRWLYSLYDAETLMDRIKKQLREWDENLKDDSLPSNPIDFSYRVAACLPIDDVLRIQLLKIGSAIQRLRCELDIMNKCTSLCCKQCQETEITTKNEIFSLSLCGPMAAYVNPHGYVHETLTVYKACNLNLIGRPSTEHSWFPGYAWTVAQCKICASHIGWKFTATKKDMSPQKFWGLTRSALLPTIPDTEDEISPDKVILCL
Sequence of h-Cereblon_DDB1 (hCereblon(M1-L442)_hDDB1(M1-H1140)) (Q16531 whole entry partner): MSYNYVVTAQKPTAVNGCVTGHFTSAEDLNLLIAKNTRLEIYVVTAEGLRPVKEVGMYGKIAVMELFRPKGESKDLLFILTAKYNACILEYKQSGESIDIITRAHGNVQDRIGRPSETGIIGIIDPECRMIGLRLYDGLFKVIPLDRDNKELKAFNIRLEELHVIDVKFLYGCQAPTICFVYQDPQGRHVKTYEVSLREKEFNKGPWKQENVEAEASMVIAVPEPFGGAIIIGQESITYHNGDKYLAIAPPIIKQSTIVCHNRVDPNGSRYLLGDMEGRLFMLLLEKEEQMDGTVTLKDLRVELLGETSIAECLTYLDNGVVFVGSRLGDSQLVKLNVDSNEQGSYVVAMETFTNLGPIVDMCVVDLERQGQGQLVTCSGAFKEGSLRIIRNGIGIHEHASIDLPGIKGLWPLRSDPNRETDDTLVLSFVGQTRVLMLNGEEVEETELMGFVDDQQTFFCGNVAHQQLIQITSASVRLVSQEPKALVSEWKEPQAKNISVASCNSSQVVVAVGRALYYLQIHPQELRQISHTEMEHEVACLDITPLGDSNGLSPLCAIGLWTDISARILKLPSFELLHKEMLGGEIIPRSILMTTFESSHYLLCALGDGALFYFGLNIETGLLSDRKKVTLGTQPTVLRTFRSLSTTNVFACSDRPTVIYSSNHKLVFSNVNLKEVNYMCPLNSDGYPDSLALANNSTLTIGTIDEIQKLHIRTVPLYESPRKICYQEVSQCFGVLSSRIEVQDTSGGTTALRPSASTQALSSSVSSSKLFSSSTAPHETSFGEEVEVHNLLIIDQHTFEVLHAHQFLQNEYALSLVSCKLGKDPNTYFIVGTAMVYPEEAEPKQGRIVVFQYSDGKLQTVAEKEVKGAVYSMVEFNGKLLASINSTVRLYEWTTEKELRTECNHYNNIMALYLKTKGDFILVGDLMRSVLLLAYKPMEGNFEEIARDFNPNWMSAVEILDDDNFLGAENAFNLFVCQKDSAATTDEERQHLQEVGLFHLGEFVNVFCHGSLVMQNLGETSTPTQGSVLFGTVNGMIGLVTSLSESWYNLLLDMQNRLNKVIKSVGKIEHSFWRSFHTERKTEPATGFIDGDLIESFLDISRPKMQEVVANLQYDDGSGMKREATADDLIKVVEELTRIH

| Compound | Kd [nM] |
| --- | --- |
| CC(=O)Nc1cccc(C(=O)N2CCC3(C2)NC(=O)NC3=O)c1 (stereo not drawn) [Example 6, N-(3-(2,4-Dioxo-1,3,7-triazaspiro[4.4]nonane-7-carbonyl)phenyl)acetamide] | 10 |
| CC(=O)Nc1ccc(C(=O)N2CCC3(C2)NC(=O)NC3=O)cc1 (stereo not drawn) [Example 7, N-(4-(2,4-Dioxo-1,3,7-triazaspiro[4.4]nonane-7-carbonyl)phenyl)acetamide] | 161 |
| O=C1CC2(CCN(c3nc4ccccc4s3)C2)C(=O)N1 (stereo not drawn) [Example 11, 7-(Benzo[d]thiazol-2-yl)-2,7-diazaspiro[4.4]nonane-1,3-dione] | 18 |
| O=C1NC(=O)C2(CCN(C(=O)c3ccccc3)C2)N1 (stereo not drawn) [Example 1, 7-Benzoyl-1,3,7-triazaspiro[4.4]nonane-2,4-dione] | 4 |
| O=C1NC(=O)C2(CCN(C(=O)c3cnn4ccccc34)C2)N1 (stereo not drawn) [Example 4, 7-(Pyrazolo[1,5-a]pyridine-3-carbonyl)-1,3,7-triazaspiro[4.4]nonane-2,4-dione] | 37 |
| O=C1NC(=O)C2(CCN(c3nc4ccccc4s3)C2)N1 (stereo not drawn) [Example 3, 7-(Benzo[d]thiazol-2-yl)-1,3,7-triazaspiro[4.4]nonane-2,4-dione] | 31 |
| O=C1NC(=O)C2(CCN(C(=O)c3ccc4scnc4c3)C2)N1 (stereo not drawn) [Example 15, 7-(Benzo[d]thiazole-5-carbonyl)-1,3,7-triazaspiro[4.4]nonane-2,4-dione] | 23 |
| O=C1NC(=O)C2(CCN(C(=O)[C@H]3CCCc4ccccc43)C2)N1 (stereo partly drawn) [Example 2, 7-((S)-1,2,3,4-Tetrahydronaphthalene-1-carbonyl)-1,3,7-triazaspiro[4.4]nonane-2,4-dione] | 3 |
| O=C1CC2(CCN(C(=O)c3cnn4ccccc34)C2)C(=O)N1 (stereo not drawn) [Example 12, 7-(Pyrazolo[1,5-a]pyridine-3-carbonyl)-2,7-diazaspiro[4.4]nonane-1,3-dione] | 6 |
| O=C1NC(=O)C2(CCN(C(=O)c3ccc4scnc4c3)C2)N1 (stereo not drawn) [Example 9, 7-(Benzo[d]thiazole-5-carbonyl)-1,3,7-triazaspiro[4.4]nonane-2,4-dione] | 32 |
| O=C1NC(=O)C2(CCN(C(=O)c3ccc4scnc4c3)C2)N1 (stereo not drawn) [Example 14, 7-(Benzo[d]thiazole-5-carbonyl)-1,3,7-triazaspiro[4.4]nonane-2,4-dione] | 26 |
| O=C1CC2(CCN(C(=O)c3ccccc3)C2)C(=O)N1 (stereo not drawn) [Example 13, 7-Benzoyl-2,7-diazaspiro[4.4]nonane-1,3-dione] | 15 |
| O=C1NC(=O)C2(CCN(c3nc4ncccc4s3)C2)N1 (stereo not drawn) [Example 8, 7-(Thiazolo[4,5-b]pyridin-2-yl)-1,3,7-triazaspiro[4.4]nonane-2,4-dione] | 7 |
| COC(=O)c1ccc(N2CCC3(CC(=O)NC3=O)C2)nc1 (stereo not drawn) [Example 10, Methyl 6-(6,8-dioxo-2,7-diazaspiro[4.4]nonan-2-yl)nicotinate] | 10 |
| COC(=O)c1ccc(N2CCC3(C2)NC(=O)NC3=O)nc1 (stereo not drawn) [Example 5, Methyl 6-(2,4-dioxo-1,3,7-triazaspiro[4.4]nonan-7-yl)nicotinate] | 2 |

From patent US11623929B2, “Spirocyclic compounds” (C4 Therapeutics, Inc., priority 2018, dated 2023)
